In patent US20070179122A1, “Beta-Aminoacid-Derivatives As Factor Xa Inhibitors” (Sanofi-Aventis Deutschland GmbH, priority 2004, published 2007):

Target: T1, human factor Xa (Homo sapiens, UniProt P00742)
T1 construct: 25 μl human factor Xa (Enzyme Research Laboratories, Inc; South Bend, Ind.); purchased Enzyme Research Laboratories, Inc; South Bend, Ind
Assay: Factor Xa Assay (chromogenic, purified enzyme)
Assay type: biochemical
Details: inhibition constant for inhibition of factor Xa; chromogenic substrate S-2765 140 μM, enzyme 0.5 nM, 25° C., pH 7.8; Ki=IC50/{1+(substrate concentration/Km)}; read-out: Ki(FXa)
Text: The ability of the compounds of the formula I to inhibit factor Xa or factor VIIa or other enzymes like thrombin, plasmin, or trypsin can be assessed by determining the concentration of the compound of the formula I that inhibits enzyme activity by 50%, i. e. the IC50 value, which was related to the inhibition constant Ki. Purified enzymes were used in chromogenic assays. […] For calculating the inhibition constant Ki, the IC50 value was corrected for competition with substrate using the formula Ki=IC50/{1+(substrate concentration/Km)} wherein Km is the Michaelis-Menten constant (Chen and Prusoff, Biochem. Pharmacol. 22 (1973) 3099-3108; I. H. Segal, Enzyme Kinetics, 1975, John Wiley & Sons, New York, 100-125; which were incorporated herein by reference). a) Factor Xa Assay
The IC50 was determined by combining in appropriate wells of a Costar half-area microtiter plate 25 μl human factor Xa (Enzyme Research Laboratories, Inc.; South Bend, Ind.) in TBS-PEG; 40 μl 10% (v/v) DMSO in TBS-PEG (uninhibited control) or various concentrations of the compound to be tested diluted in 10% (v/v) DMSO in TBS-PEG; and substrate S-2765 (N(α)-benzyloxycarbonyl-D-Arg-Gly-L-Arg-p-nitroanilide; Kabi Pharmacia, Inc.; Franklin, Ohio) in TBS-PEG.
The assay was performed by pre-incubating the compound of formula I plus enzyme for 10 min. Then the assay was initiated by adding substrate to obtain a final volume of 100 μl. The initial velocity of chromogenic substrate hydrolysis was measured by the change in absorbance at 405 nm using a Bio-tek Instruments kinetic plate reader (Ceres UV900HDi) at 25° C. during the linear portion of the time course (usually 1.5 min after addition of substrate). The enzyme concentration was 0.5 nM and substrate concentration was 140 μM.

T1 sequence (P00742 235-488 limits assumed): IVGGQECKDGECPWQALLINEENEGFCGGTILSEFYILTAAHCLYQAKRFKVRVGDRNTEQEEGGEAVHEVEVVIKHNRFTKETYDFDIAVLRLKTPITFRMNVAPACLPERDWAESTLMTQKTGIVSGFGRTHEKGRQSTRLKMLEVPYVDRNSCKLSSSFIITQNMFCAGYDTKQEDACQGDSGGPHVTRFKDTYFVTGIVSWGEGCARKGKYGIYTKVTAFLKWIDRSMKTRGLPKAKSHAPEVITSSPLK
T1 sequence (P00742 41-179 partner limits assumed): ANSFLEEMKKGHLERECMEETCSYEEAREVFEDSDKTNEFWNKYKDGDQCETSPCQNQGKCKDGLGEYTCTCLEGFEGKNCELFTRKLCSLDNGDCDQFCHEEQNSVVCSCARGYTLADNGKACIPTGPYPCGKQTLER

**Q.** With `O=C(CCNC(=O)c1ccc(Cl)s1)Nc1ccc(-n2ccncc2=O)cc1` [Example 2, 5-Chloro-thiophene-2-carboxylic acid {2-[4-(2-oxo-2H-pyrazin-1-yl)-phenylcarbaminyl]-ethyl}-amide] as the molecule, how does the Ki read?
**A.** 7 nM

**Q.** With `O=C(CCNC(=O)c1ccc(Cl)cc1)Nc1ccc(N2CCOCC2=O)cc1` [Example 3, 4-Chloro-N-{2-[4-(3-oxo-morpholin-4-yl)-phenylcarbaminyl]-ethyl}-benzamide] as the molecule, how does the Ki read?
**A.** 1390 nM

**Q.** With `O=C(NCCC(=O)N1CCc2cc(-n3ccncc3=O)ccc21)c1ccc(Cl)s1` [Example 4, 5-Chloro-thiophene-2-carboxylic acid {3-oxo-3-[5-(2-oxo-2H-pyrazin-1-yl)-2,3-dihydro-indol-1-yl]-propyl}-amide] as the molecule, how does the Ki read?
**A.** 40 nM

**Q.** Which Ki does the source give for `O=C(NCCC(=O)n1ccc2cc(-n3ccncc3=O)ccc21)c1ccc(Cl)s1` [Example 5, 5-Chloro-thiophene-2-carboxylic acid {3-oxo-3-[5-(2-oxo-2H-pyrazin-1-yl)-indol-1-yl]-propyl}-amide] here?
**A.** 8 nM

**Q.** For `O=C(CCNC(=O)c1ccc(Cl)s1)Nc1ccc(-n2ccncc2=O)cc1F` [Example 6, 5-Chloro-thiophene-2-carboxylic acid {2-[2-fluoro-4-(2-oxo-2H-pyrazin-1-yl)-phenylcarbaminyl]-ethyl}-amide], which Ki is on record?
**A.** 4 nM

**Q.** `O=C(NC[C@@H](NCC(F)F)C(=O)Nc1ccc(N2CCOCC2=O)c(C(F)(F)F)c1)c1ccc(Cl)s1` [Example 7, 5-Chloro-thiophene-2-carboxylic acid {(R)-2-(2,2-difluoro-ethylamino)-2-[4-(3-oxo-morpholin-4-yl)-3-trifluoromethyl-phenylcarbaminyl]-ethyl}-amide] was tested. Which Ki did it give?
**A.** 59 nM

**Q.** For `O=C(CCNS(=O)(=O)c1ccc(Cl)s1)Nc1ccc(N2CCOCC2=O)cc1` [Example 8, 3-(5-Chloro-thiophene-2-sulfonylamino)-N-[4-(3-oxo-morpholin-4-yl)-phenyl]-propionamide], which Ki is on record?
**A.** 375 nM

**Q.** Which Ki does the source give for `O=C(CCNC(=O)c1ccc(Cl)s1)Nc1ccc(N2CCOCS2(=O)=O)cc1` [Example 9, 5-Chloro-thiophene-2-carboxylic acid {2-[4-(3,3-dioxo-[1,3,4]oxathiazinan-4-yl)-phenylcarbaminyl]-ethyl}-amide] here?
**A.** 30 nM

**Q.** For `O=C(NCC(F)(F)C(=O)Nc1ccc(-n2ccncc2=O)cc1)c1ccc(Cl)s1` [Example 10, 5-Chloro-thiophene-2-carboxylic acid {2,2-difluoro-2-[4-(2-oxo-2H-pyrazin-1-yl)-phenylcarbaminyl]-ethyl}-amide], which Ki is on record?
**A.** 8 nM

**Q.** `O=C(NCC(F)(F)C(=O)Nc1ccc(N2CCOCC2=O)cc1)c1ccc(Cl)s1` [Example 11, 5-Chloro-thiophene-2-carboxylic acid {2,2-difluoro-2-[4-(3-oxo-morpholin-4-yl)-phenylcarbaminyl]-ethyl}-amide] was tested. Which Ki did it give?
**A.** 18 nM

**Q.** Which Ki does the source give for `N=C(N)c1cccc(C(=O)NCCC(=O)Nc2ccc(-n3ccncc3=O)cc2)c1` [Example 12, 3-Carbamimidoyl-N-{2-[4-(2-oxo-2H-pyrazin-1-yl)-phenylcarbaminyl]-ethyl}-benzamide] here?
**A.** 100 nM

**Q.** `COC(=O)c1cc(NC(=O)CCNC(=O)c2ccc(Cl)s2)ccc1N1CCOCC1=O` [Example 13, 5-{3-[(5-Chloro-thiophene-2-carbonyl)-amino]-propionylamino}-2-(3-oxo-morpholin-4-yl)-benzoic acid methyl ester] was tested. Which Ki did it give?
**A.** 263 nM

**Q.** Which Ki does the source give for `O=C(CCNC(=O)c1ccc(Cl)s1)Nc1ccc(N2CCOCC2=O)c(C(=O)O)c1` [Example 14, 5-{3-[(5-Chloro-thiophene-2-carbonyl)-amino]-propionylamino}-2-(3-oxo-morpholin-4-yl)-benzoic acid] here?
**A.** 30000 nM

**Q.** Which Ki does the source give for `O=C(CCNC(=O)c1ccc(Cl)s1)Nc1ccc(N2CCOCC2=O)nc1` [Example 15, 5-Chloro-thiophene-2-carboxylic acid {2-[6-(3-oxo-morpholin-4-yl)-pyridin-3-ylcarbamoyl]-ethyl}-amide] here?
**A.** 194 nM

**Q.** Which Ki does the source give for `O=C(CCNC(=O)c1ccc(Cl)s1)Nc1ccc(N2CCOCC2=O)c(F)c1` [Example 16, 5-Chloro-thiophene-2-carboxylic acid {2-[3-fluoro-4-(3-oxo-morpholin-4-yl)-phenylcarbaminyl]-ethyl}-amide] here?
**A.** 15 nM

**Q.** For `COC(=O)c1cc(N2CCOCC2=O)ccc1NC(=O)CCNC(=O)c1ccc(Cl)s1` [Example 18, 2-{3-[(5-Chloro-thiophene-2-carbonyl)-amino]-propionylamino}-5-(3-oxo-morpholin-4-yl)-benzoic acid methyl ester], which Ki is on record?
**A.** 3 nM

**Q.** `COC(=O)c1cc(-n2ccccc2=O)ccc1NC(=O)CCNC(=O)c1ccc(Cl)s1` [Example 19, 2-{3-[(5-Chloro-thiophene-2-carbonyl)-amino]-propionylamino}-5-(2-oxo-2H-pyridin-1-yl)-benzoic acid methyl ester] was tested. Which Ki did it give?
**A.** 2 nM

**Q.** Which Ki does the source give for `O=C(CCNC(=O)c1ccc(Cl)s1)Nc1ccc(-n2ccccc2=O)cc1C(=O)O` [Example 20, 2-{3-[(5-Chloro-thiophene-2-carbonyl)-amino]-propionylamino}-5-(2-oxo-2H-pyridin-1-yl)-benzoic acid] here?
**A.** 11 nM

**Q.** With `O=C(CCNC(=O)c1ccc(Cl)s1)Nc1ccc(-n2ccc(=O)cc2)cc1` [Example 21, 5-Chloro-thiophene-2-carboxylic acid {2-[4-(4-oxo-4H-pyridin-1-yl)-phenylcarbaminyl]-ethyl}-amide] as the molecule, how does the Ki read?
**A.** 260 nM

**Q.** `O=C(CCNC(=O)c1ccc(Cl)cc1)Nc1ccc(-n2ccc(=O)cc2)cc1` [Example 22, 4-Chloro-N-{2-[4-(4-oxo-4H-pyridin-1-yl)-phenylcarbaminyl]-ethyl}-benzamide] was tested. Which Ki did it give?
**A.** 4000 nM

**Q.** `COC(=O)CN(C(=O)CCNC(=O)c1ccc(Cl)s1)c1ccc(N2CCOCC2=O)cc1` [Example 23, {{3-[(5-Chloro-thiophene-2-carbonyl)-amino]-propionyl}-[4-(3-oxo-morpholin-4-yl)-phenyl]-amino}-acetic acid methyl ester] was tested. Which Ki did it give?
**A.** 212 nM

**Q.** How did the Ki turn out when `O=C(O)CN(C(=O)CCNC(=O)c1ccc(Cl)s1)c1ccc(N2CCOCC2=O)cc1` [Example 24, {{3-[(5-Chloro-thiophene-2-carbonyl)-amino]-propionyl}-[4-(3-oxo-morpholin-4-yl)-phenyl]-amino}-acetic acid] was run?
**A.** 228 nM

**Q.** For `O=C(NCCC(=O)N(CC(F)F)c1ccc(N2CCOCC2=O)cc1)c1ccc(Cl)s1` [Example 25, 5-Chloro-thiophene-2-carboxylic acid (2-{(2,2-difluoro-ethyl)-[4-(3-oxo-morpholin-4-yl)-phenyl]-carbamoyl}-ethyl)-amide], which Ki is on record?
**A.** 383 nM

**Q.** `O=C(N[C@H](CNC(=O)c1ccc(Cl)s1)C(=O)Nc1ccc(N2CCOCC2=O)c(C(F)(F)F)c1)OCc1ccccc1` [Example 26, {(R)-2-[(5-Chloro-thiophene-2-carbonyl)-amino]-1-[4-(3-oxo-morpholin-4-yl)-3-trifluoromethyl-phenylcarbaminyl]-ethyl}-carbamic acid benzyl ester] was tested. Which Ki did it give?
**A.** 12 nM
